Structures can show the parent of a compound that is named as a salt.

The results in this text go back to patent publication US11478478B2, “2,3-disubstituted 1-acyl-4-amino-1,2,3,4-tetrahydroquinoline derivatives and their use as bromodomain inhibitors” (GLAXOSMITHKLINE INTELLECTUAL PROPERTY (NO.2) LIMITED, priority 2013, dated 2022).

This test has as its target T1, BRD4 BD2 (Homo sapiens, UniProt O60885, Y97A).
T1 construct: BRD4 (1-477) (Y97A) and (Y390A); made in house; host or cells: E. coli (pET15b vector)
The experiment in a line: TR-FRET binding assay, BRD4 BD2 (BD1-mutated protein). The conditions noted are these: read-out: pIC50 in the BRD4 BD2 assay (converted). As to the method: Time Resolved Fluorescence Resonance Energy Transfer (TR-FRET) Assay Binding was assessed using a time resolved fluorescent resonance energy transfer binding assay. This utilises a 6 His purification tag at the N-terminal of the proteins as an epitope for an anti-6 His antibody labeled with Europium chelate (PerkinElmer AD0111) allowing binding of the Europium to the proteins which acts as the donor fluorophore. A small molecule, high affinity binder of the bromodomains BRD2, BRD3, BRD4 and BRDT has been labeled with Alexa Fluor647 (Reference Compound X) and this acts as the acceptor in the FRET pair.
In the absence of a competing compound, excitation of the Europium causes the donor to emit at λ618 nm which excites the Alexa labelled bromodomain binding compound leading to an increased energy transfer that is measurable at λ647 nM. In the presence of a sufficient concentration of a compound that can bind these proteins, the interaction is disrupted leading to a quantifiable drop in fluorescent resonance energy transfer.
The binding of the compounds of formula (I) to Bromodomains BRD2, BRD3, BRD4 and BRDT was assessed using mutated proteins to detect differential binding to either Binding Domain 1 (BD1) or Binding Domain 2 (BD2) on the bromodomain. These single residue mutations in the acetyl lysine binding pocket greatly lower the affinity of the fluoroligand (Reference Compound X) for the mutated domain (>1000 fold selective for the non-mutated domain). Therefore in the final assay conditions, binding of the fluoroligand to the mutated domain cannot be detected and subsequently the assay is suitable to determine the binding of compounds to the single non-mutated bromodomain.
Recombinant Human Bromodomains [(BRD2 (1-473) (Y113A) and (Y386A), BRD3 (1-435) (Y73A) and (Y348A) BRD4 (1-477) (Y97A) and (Y390A) and BRDT (1-397) (Y66A) and (Y309A)] were expressed in E. coli cells (in pET15b vector for BRD2/3/4 and in pET28a vector for BRDT) with a 6-His tag at the N-terminal. The His-tagged Bromodomain pellet was resuspended in 50 mM HEPES (pH7.5), 300 mM NaCl, 10 mM imidazole & 1 μl/ml protease inhibitor cocktail and extracted from the E. coli cells using sonication and purified using a nickel sepharose high performance column, the proteins were washed and then eluted with a linear gradient of 0-500 mM imidazole with buffer 50 mM HEPES (pH7.5), 150 mM NaCl, 500 mM imidazole, over 20 column volumes. Final purification was completed by Superdex 200 prep grade size exclusion column. Purified protein was stored at −80° C. in 20 mM HEPES pH 7.5 and 100 mM NaCl. Protein identity was confirmed by peptide mass fingerprinting and predicted molecular weight confirmed by mass spectrometry.
All assay components were dissolved in buffer composition of 50 mM HEPES pH7.4, 50 mM NaCl, 5% Glycerol, 1 mM DTT and 1 mM CHAPS. The final concentration of bromodomain proteins were 10 nM and the Alexa Fluor647 ligand was at Kd. These components were premixed and 5 μl of this reaction mixture was added to all wells containing 50 nl of various concentrations of test compound or DMSO vehicle (0.5% DMSO final) in Greiner 384 well black low volume microtitre plates and incubated in dark for 30 minutes at rt. 5 μl of detection mixture containing 1.5 nM final concentration anti-6His Europium chelate was added to all wells and a further dark incubation of at least 30 minutes was performed. Plates were then read on the Envision platereader, (λex=317 nm, donor λem=615 nm; acceptor λem=665 nm; Dichroic LANCE dual). Time resolved fluorescent intensity measurements were made at both emission wavelengths and the ratio of acceptor/donor was calculated and used for data analysis. All data was normalized to the mean of 16 high (inhibitor control—Example 11 of WO 2011/054846A1) and 16 low (DMSO) control wells on each plate. A four parameter curve fit of the following form was then applied: y=a+((b−a)/(1+(10^/10^)^d) […]
In general terms: TR-FRET usually uses a lanthanide donor and a delayed reading to cut background.
Turning to `CC(=O)N1c2ccccc2[C@H](Nc2ccsc2)[C@@H](C)[C@@H]1C` (racemic) [Example 12, rac-1-((2S,3R,4R)-2,3-dimethyl-4-(thiophen-3-ylamino)-3,4-dihydroquinolin-1(2H)-yl)ethanone], the IC50 was 0.1 µM.
As to `CC(=O)N1c2ccccc2[C@H](Nc2ccc(Cl)cc2)[C@@H](C)[C@@H]1C` (racemic) [Example 13, rac-1-((2S,3R,4R)-4-((4-chlorophenyl)amino)-2,3-dimethyl-3,4-dihydroquinolin-1(2H)-yl)ethanone], the IC50 was 0.1 µM.
For the compound `COc1ccc(N[C@H]2c3ccccc3N(C(C)=O)[C@@H](C)[C@@H]2C)cc1` (racemic) [Example 15, rac-1-((2S,3R,4R)-4-((4-methoxyphenyl)amino)-2,3-dimethyl-3,4-dihydroquinolin-1(2H)-yl)ethanone], the IC50 was 0.1 µM.
To `CC(=O)N1c2ccccc2[C@H](Nc2cccc(C)c2)[C@@H](C)[C@@H]1C` (racemic) [Example 16, rac-1-((2S,3R,4R)-2,3-dimethyl-4-(m-tolylamino)-3,4-dihydroquinolin-1(2H)-yl)ethanone] belongs 0.1 µM; to `CC(=O)N1c2ccccc2[C@H](Nc2ccc(C)cc2)[C@@H](C)[C@@H]1C` (racemic) [Example 20, rac-1-((2S,3R,4R)-2,3-dimethyl-4-(p-tolylamino)-3,4-dihydroquinolin-1(2H)-yl)ethanone], 0.1 µM.
`CC(=O)N1c2ccccc2[C@H](Nc2cncc(Cl)c2)[C@@H](C)[C@@H]1C` (racemic) [Example 22, rac-1-((2S,3R,4R)-4-((5-chloropyridin-3-yl)amino)-2,3-dimethyl-3,4-dihydroquinolin-1(2H)-yl)ethanone]: the IC50 is 0.1 µM.
In the case of `CC(=O)N1c2ccccc2[C@H](Nc2ccnc(C)c2)[C@@H](C)[C@@H]1C` (racemic) [Example 23, rac-1-((2S,3R,4R)-2,3-dimethyl-4-((2-methylpyridin-4-yl)amino)-3,4-dihydroquinolin-1(2H)-yl)ethanone], the IC50 was 1 to 100 µM.
To `CC(=O)N1c2ccccc2[C@H](Nc2ccc(C#N)cc2)[C@@H](C)[C@@H]1C1CC1` (racemic) [Example 30, rac-4-(((2S,3R,4R)-1-Acetyl-2-cyclopropyl-3-methyl-1,2,3,4-tetrahydroquinolin-4-yl)amino)benzonitrile] belongs 0.1 µM.
For the compound `CC(=O)N1c2ccccc2[C@H](Nc2ccc(F)cc2)[C@@H](C)[C@@H]1C1CC1` (racemic) [Example 32, rac-1-((2S,3R,4R)-2-Cyclopropyl-4-((4-fluorophenyl)amino)-3-methyl-3,4-dihydroquinolin-1(2H)-yl)ethanone], the IC50 was 0.1 µM.
As to `CC(=O)N1c2ccccc2[C@H](Nc2cncc(C)n2)[C@@H](C)[C@@H]1C1CC1` (racemic) [Example 48, rac-1-((2S,3R,4R)-2-cyclopropyl-3-methyl-4-((6-methylpyrazin-2-yl)amino)-3,4-dihydroquinolin-1(2H)-yl)ethanone], the IC50 is 1 to 100 µM.
Regarding `CC(=O)N1c2ccccc2[C@H](Nc2ncccc2O)[C@@H](C)[C@@H]1C1CC1` (racemic) [Example 49, rac-1-((2S,3R,4R)-2-cyclopropyyl-4-((3-hydroxypyridin-2-yl)amino)-3-methyl-3,4-dihydroquinolin-1(2H)-yl)ethanone], the IC50 is 1 to 100 µM.
As for `CC(=O)N1c2ccccc2[C@H](Nc2cccc(C#N)n2)[C@@H](C)[C@@H]1C1CC1` (racemic) [Example 50, rac-6-(((2S,3R,4R)-1-acetyl-2-cyclopropyl-3-methyl-1,2,3,4-tetrahydroquinolin-4-yl)amino)picolinonitrile], the IC50 is 1 to 100 µM.
As to `CC(=O)N1c2ccccc2[C@H](Nc2ccccc2)[C@@H](C)[C@@H]1CC(F)(F)F` (racemic) [Example 53, rac-1-((2S,3R,4R)-3-methyl-4-(phenylamino)-2-(2,2,2-trifluoroethyl)-3,4-dihydroquinolin-1(2H)-yl)ethanone], the IC50 was 1 to 100 µM.
Consider `COC[C@H]1[C@H](C)[C@@H](Nc2ccccc2)c2ccccc2N1C(C)=O` (racemic) [Example 54, rac-1-((2R,3R,4R)-2-(methoxymethyl)-3-methyl-4-(phenylamino)-3,4-dihydroquinolin-1(2H)-yl)ethanone], for which the IC50 is 1 to 100 µM.
For `CC[C@H]1[C@H](C)[C@@H](Nc2ccc(C#N)cc2)c2cc(F)ccc2N1C(C)=O` (racemic) [Example 62, rac-4-(((2S,3R,4R)-1-acetyl-2-ethyl-6-fluoro-3-methyl-1,2,3,4-tetrahydroquinolin-4-yl)amino)benzonitrile], the IC50 is 0.1 µM.
As to `CC(=O)N1c2cc(O)ccc2[C@H](Nc2cccc(C)n2)[C@@H](C)[C@@H]1C1CC1` (racemic) [Example 65, rac-1-((2S,3R,4R)-2-cyclopropyl-7-hydroxy-3-methyl-4-((6-methylpyridin-2-yl)amino)-3,4-dihydroquinolin-1(2H)-yl)ethanone], the IC50 is 1 to 100 µM.
Regarding `CC(=O)N1c2ccc(S(C)(=O)=O)cc2[C@H](Nc2cccc(C)n2)[C@@H](C)[C@@H]1C1CC1` (racemic) [Example 67, rac-1-((2S,3R,4R)-2-cyclopropyl-3-methyl-4-((6-methylpyridin-2-yl)amino)-6-(methylsulfonyl)-3,4-dihydroquinolin-1(2H)-yl)ethanone], the IC50 was 1 to 100 µM.
In the case of `CC(=O)N1c2ccc(S(=O)(=O)C(C)C)cc2[C@H](Nc2cccc(C)n2)[C@@H](C)[C@@H]1C1CC1` (racemic) [Example 68, rac-1-((2S,3R,4R)-2-cyclopropyl-6-(isopropylsulfonyl)-3-methyl-4-((6-methylpyridin-2-yl)amino)-3,4-dihydroquinolin-1(2H)-yl)ethanone], the IC50 is 1 to 100 µM.
Regarding `CC(=O)N1c2ccc(N3CCNCC3)cc2[C@H](Nc2ccccc2)[C@@H](C)[C@@H]1C` (racemic) [Example 69, rac-1-((2S,3R,4R)-2,3-dimethyl-4-(phenylamino)-6-(piperazin-1-yl)-3,4-dihydroquinolin-1(2H)-yl)ethanone], the IC50 was 0.1 µM.
The same measure for `CC(=O)N1c2ccc(N3CCOCC3)cc2[C@H](Nc2ccccc2)[C@@H](C)[C@@H]1C` (racemic) [Example 70, rac-1-((2S,3R,4R)-2,3-dimethyl-6-morpholino-4-(phenylamino)-3,4-dihydroquinolin-1(2H)-yl)ethanone]: 0.1 µM; for `CC(=O)N1c2ccc(N3CCNC(C)C3)cc2[C@H](Nc2ccccc2)[C@@H](C)[C@@H]1C` (mixture of isomers) [Example 72, 1-((rac-2S,3R,4R)-2,3-dimethyl-6-(3-methylpiperazin-1-yl)-4-(phenylamino)-3,4-dihydroquinolin-1(2H)-yl)ethanone, formate salt]: 0.1 µM; for `CC(=O)N1c2ccc(N3CCC(N)CC3)cc2[C@H](Nc2ccccc2)[C@@H](C)[C@@H]1C` (racemic) [Example 74, rac-1-((2S,3R,4R)-6-(4-aminopiperidin-1-yl)-2,3-dimethyl-4-(phenylamino)-3,4-dihydroquinolin-1(2H)-yl)ethanone, hydrochloride]: 0.1 µM.
The same measure for `CC(=O)N1c2ccc(N3CCOC(C)C3)cc2[C@H](Nc2ccccc2)[C@@H](C)[C@@H]1C` (mixture of isomers) [Example 77, 1-((rac-2S,3R,4R)-2,3-dimethyl-6-(2-methylmorpholino)-4-(phenylamino)-3,4-dihydroquinolin-1(2H)-yl)ethanone]: 0.1 µM.
